Assay [1] addresses EGFR (human) (UniProt P00533). As to conditions: a431.
Assay [2] has as its target EGFR (human) (UniProt P00533). As to conditions: dher14.
The target of assay [3] is EGFR (human) (UniProt P00533). The conditions noted are these: A431.

Several values for one entry are separate records, joined by “and”; a condition that tells them apart may be missing. Equal values may be shown once.

EGFR (human), sequence (P00533 whole entry, looked up): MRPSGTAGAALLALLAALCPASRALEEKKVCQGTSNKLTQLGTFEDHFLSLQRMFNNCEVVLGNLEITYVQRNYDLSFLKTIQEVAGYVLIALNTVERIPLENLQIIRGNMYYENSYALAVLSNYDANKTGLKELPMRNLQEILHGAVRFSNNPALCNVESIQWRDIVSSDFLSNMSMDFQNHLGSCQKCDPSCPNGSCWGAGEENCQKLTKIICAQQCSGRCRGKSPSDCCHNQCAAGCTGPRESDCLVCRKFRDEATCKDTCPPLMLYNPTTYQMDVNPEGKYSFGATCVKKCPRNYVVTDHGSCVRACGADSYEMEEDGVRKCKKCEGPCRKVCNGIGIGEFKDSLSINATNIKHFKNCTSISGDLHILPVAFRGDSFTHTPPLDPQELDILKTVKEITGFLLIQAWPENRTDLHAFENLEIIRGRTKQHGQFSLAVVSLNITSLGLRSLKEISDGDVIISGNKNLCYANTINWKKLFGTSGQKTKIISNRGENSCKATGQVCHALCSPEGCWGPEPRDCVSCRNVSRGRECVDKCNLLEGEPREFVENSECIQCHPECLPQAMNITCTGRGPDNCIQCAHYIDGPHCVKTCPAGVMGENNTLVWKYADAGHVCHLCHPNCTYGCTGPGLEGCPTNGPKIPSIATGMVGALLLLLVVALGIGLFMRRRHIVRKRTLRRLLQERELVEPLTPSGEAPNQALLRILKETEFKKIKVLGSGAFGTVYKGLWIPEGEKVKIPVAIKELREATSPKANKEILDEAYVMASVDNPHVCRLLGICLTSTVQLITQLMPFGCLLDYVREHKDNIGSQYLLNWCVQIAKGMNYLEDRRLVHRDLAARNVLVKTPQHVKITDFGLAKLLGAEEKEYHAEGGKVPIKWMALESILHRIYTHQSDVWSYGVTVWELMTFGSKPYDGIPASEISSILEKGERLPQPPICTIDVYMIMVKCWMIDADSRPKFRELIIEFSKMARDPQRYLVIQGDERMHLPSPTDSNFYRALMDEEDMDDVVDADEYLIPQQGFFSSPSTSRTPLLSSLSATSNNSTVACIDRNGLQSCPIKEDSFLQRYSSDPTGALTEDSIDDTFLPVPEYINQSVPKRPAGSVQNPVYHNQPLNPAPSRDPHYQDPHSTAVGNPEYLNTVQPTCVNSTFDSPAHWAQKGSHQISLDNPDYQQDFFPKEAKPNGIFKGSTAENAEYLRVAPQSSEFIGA

At EGFR (human) [1], `C=CC(=O)Nc1ccc2ncnc(Nc3cc(Cl)c(Cl)cc3F)c2c1` returned an IC50 of 6.7 to 20 nM. On the same count and under the same terms, the figure for `O=C(CCl)Nc1ccc2ncnc(Nc3cc(Cl)c(Cl)cc3F)c2c1` is 5 to 25 nM and 25 to 50 nM; for `COCC(=O)Nc1ccc2ncnc(Nc3cccc(I)c3)c2c1` it is 1000 to 5000 nM. `COCC(=O)Nc1ccc2ncnc(Nc3cc(Cl)c(Cl)cc3F)c2c1`: the IC50 against EGFR (human) [2] was over 250 nM; against EGFR (human) [1] it was 1000 to 10000 nM. On to `C=CC(=O)Nc1cc2c(Nc3cccc(Br)c3)ncnc2cc1N1CCN(C)CC1`, for which the figures for the half-inhibitory concentration (IC50) on EGFR (human) [3] and at EGFR (human) [1] were 500 to 13000 nM and 50 to 250 nM, respectively. Regarding `COc1cc2ncnc(Nc3cc(Cl)c(Cl)cc3F)c2cc1OC`, at EGFR (human) [1], the IC50 was in the range of 3 to 5 nM.

As usually defined, the IC50 is the concentration that inhibits the measured activity by half. High values mean weaker potency in that assay, low ones greater potency in that assay.

Source of the values: the Kinase Knowledgebase extract (Sharma et al. 2016).
